Results as given in paper PMC12257413, “Discovery of a Novel sp^3‑Rich M1 Positive Allosteric Modulators (PAMs) Chemotype via Scaffold Hopping” (ACS Medicinal Chemistry Letters, 2025).

Tests used:
[1] = Brain homogenate binding by equilibrium dialysis; type: in vitro ADME; conditions: fraction unbound in rat brain homogenate
Method: A similar approach was used to determine the degree of brain homogenate binding, which employed the same methodology and procedure with the following modifications: 1) a final compound concentration of 1 μM was used, 2) naïve rat brains were homogenized in DPBS (1:3 composition of brain: DPBS, w/w) using a Mini-Bead Beater™ machine in order to obtain brain homogenate, which was then treated in the same manner as the plasma samples in the previously described plasma protein binding assay. […]
same manner as the plasma samples in the previously described plasma protein binding assay. Fraction unbound for both plasma and brain samples was determined using Equation 4.
Equation 4 Determination of fraction unbound in plasma.
The diluted fraction unbound (fu2) in brain was calculated in the same manner by using brain homogenate rather than plasma. Undiluted fraction unbound for the brain was calculated using Equation 5 […]
Equation 5 Determination of fraction unbound in brain. […]
Human or rat hepatic microsomes (0.5 mg/mL) and 1 µM test compound were incubated in 100 mM potassium phosphate pH 7.4 buffer with 3 mM MgCl 2 at 37 °C with constant shaking. […] The in vitro half-life (1/2, min, Eq. 1), intrinsic clearance (CL int, mL/min/kg, Eq. 2), and subsequent predicted hepatic clearance (CLhep, mL/min/kg, Eq. 3) was determined employing the following equations: […]

[2] = molecular target: T1, human muscarinic receptor subtype 1 (M1) (Homo sapiens, UniProt P11229); test: Calcium mobilization assay in hM1-CHO cells, PAM activity with EC20 acetylcholine; type: cell-based; conditions: for EC50: read-out: hM1 pEC50 ± SEM (converted)
T1 sequence (P11229 1-460): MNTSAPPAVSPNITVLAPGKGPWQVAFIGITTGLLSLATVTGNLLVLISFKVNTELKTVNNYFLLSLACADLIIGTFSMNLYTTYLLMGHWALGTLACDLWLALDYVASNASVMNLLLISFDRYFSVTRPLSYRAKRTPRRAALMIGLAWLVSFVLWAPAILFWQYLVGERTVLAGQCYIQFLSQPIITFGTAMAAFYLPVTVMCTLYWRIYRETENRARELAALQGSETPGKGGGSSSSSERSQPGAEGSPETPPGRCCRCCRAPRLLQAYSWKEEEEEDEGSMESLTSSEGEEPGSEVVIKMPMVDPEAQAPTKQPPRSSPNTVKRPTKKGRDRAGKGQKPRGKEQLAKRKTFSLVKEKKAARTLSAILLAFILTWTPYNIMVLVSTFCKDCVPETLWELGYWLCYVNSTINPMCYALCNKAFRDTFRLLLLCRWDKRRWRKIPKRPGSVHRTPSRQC
Method: page 2: Procedures for Biological Experiments Calcium mobilization assays: To measure the functional activity of positive allosteric modulator (PAM) compounds in a cellular assay, human or rat muscarinic receptor subtype 1 (M1) was stably expressed in the Chinese hamster ovary (CHO) cells to evoke an increase in intracellular calcium to an EC20 concentration of acetylcholine (ACh) agonist. The stable M1-CHO cells were cultured in F12 medium containing 10% fetal bovine serum, 20 mM HEPES, 100 units/mL antibiotics/antimycotic, 0.5 mg/ml G418. All reagents used were from Life Technologies (Carlsbad, CA) unless otherwise noted. Briefly, the day before the assay, stable M1-CHO cells (15,000 cells/20 μL/well) were plated in black-walled, clear-bottomed, 384 well plates (Greiner Bio-One, Monroe, NC) in the culture medium without G418, and then incubated overnight at 37 °C in the presence of 5% CO2. The next day, calcium assay buffer (Hank’s balanced salt solution (HBSS), 20 mM HEPES, 2.5 mM Probenecid, 4.16 mM sodium bicarbonate (Sigma-Aldrich, St. Louis, MO) was prepared to dilute […] calcium indicator dye. […] curves in DMSO using the Bravo Liquid Handler (Agilent, Santa Clara, CA), transferred to a 384 well daughter plates using an Echo acoustic liquid handler (Beckman Coulter, Indianapolis, Indiana), and diluted in assay Buffer to a 2X final concentration. The agonist plates were prepared using acetylcholine (ACh, Sigma-Aldrich, St. Louis, MO) concentrations for the EC20 and ECMAX responses by diluting in assay buffer to a 5X final concentration. The 2X dye solution (2.3 µM) was prepared by mixing a 2.3 mM Fluo-4-AM stock in DMSO with 10% (w/v) pluronic acid F- 127 in a 1:1 ratio in assay buffer. Using a microplate washer (BioTek, Winooski, VT), cells were washed with assay buffer for 3 times to remove medium. After the final wash, 20 μL of assay buffer remained in the cell plates. Immediately, 20 μL of the 2X dye solution (final 1.15 µM) was added to each well of the cell plate using a Multidrop Combi dispenser (Thermo Fisher, Waltham, MA). After cells were incubated with the dye solutions for 45 min at 37 °C in the presence of 5% CO2, the dye solutions were removed and replaced with assay buffer using a microplate washer, leaving 20 μL of assay buffer in the cell plate. The compound, agonist, and cell plates were placed inside the Functional Drug Screening System uCell (FDSS uCell, Hamamatsu, Japan) to measure the calcium flux. The triple add protocol was used to measure Ca kinetics; Compound, ACh for EC20, and ACh for ECMAX adds in an order. Briefly, after establishment of a fluorescence baseline S2 page 3: for 2 seconds (excitation, 480 nm; emission, 530 nm), first add occurred by adding 20 µL of test compound to the cells, and the response was measured for 140 seconds. This is followed by second add; 10 µL (5X) of an EC20 concentration of ACh agonist was added to the cells, and the response of the cells was measured for 125 seconds. Immediately, the third add occurred by adding 12 ul assay buffer or 5X of an EC max concentration of ACh and the response of the cells was measured for 90 seconds. Assay buffer was added to the wells that incubated with compounds followed by EC20 concentration of ACh. Agonists containing ECmax concentration of ACh were added to the wells that incubated with DMSO and assay buffer from the 1st and 2nd adds to measure maximum Ca responses (ECmax). Calcium fluorescence was recorded as fold over basal fluorescence and raw data were normalized to the maximal response to ACh agonist. […]

## Cn1cc(-c2ccc(Cc3cc(C(=O)N[C@H]4CCOC[C@@H]4O)nn3C3CCCC3)cc2)cn1 [17g]
[1]
  Rat fubrain: 0.08
[2]
  hM1 %ACh Max ± SEM: 82 ± 3.4 %ACh Max
  EC50: 0.427 µM

## Cn1cc(-c2ccc(Cc3cc(C(=O)N[C@H]4CCCC[C@@H]4O)nn3C3CCCC3)cc2)cn1 [17k]
[1]
  Rat fubrain: 0.01
[2]
  hM1 %ACh Max ± SEM: 82 ± 4.4 %ACh Max
  EC50: 0.589 µM
